Reference: US11077126B2 (priority 2017, dated 2021)
Marks after values point to notes of the source that are not given here.

How the values were obtained:
[1] = tested on: transplanted tumor of human glioblastoma A172 cells; assay: Human glioblastoma in nude mice model; details: 30 mg/kg i.g. 30 d
Protocol: (§1) Then cell concentration was adjusted to 1×10^7/ml with matrigel, then each nude mouse was inoculated subcutaneously with 0.2 ml of cells at its right armpit and recorded as the first day of inoculation. […] Each group was continuously administered intragastrically for 30 days with a dose of 20 ml/kg. The mice were sacrificed the next day after drug withdrawal and the indicators were tested. The long diameter and short diameter of the tumor, and the body weight of each mouse were recorded every 3 days from drug administration to nude mouse sacrifice.
(§2) The body weight of the nude mice and the long diameter (a) and short diameter (b) of the transplanted tumor were measured every 3 days, and the tumor volume (v), relative tumor volume (RTV) and relative tumor proliferation rate (T/C) are calculated respectively according to the following formulas, wherein V=a×b^2/2; RTV=V/V0 (V0 is the tumor volume before administration, V is the tumor volume before sacrifice), and T/C (%)=treatment group RTV/model control group RTV×100%.
(§3) Each mouse was weighed and sacrificed. After the tumor was completely stripped off from the body of the mouse, the non-tumor tissues such as blood stains and fat were removed to weigh the tumor and calculate the tumor growth inhibition rate. The average tumor weight of each group of mice is used as an indicator of efficacy. Tumor growth inhibition rate (%)=(1−the average tumor weight of the treatment group/the average tumor weight of the model group)×100%.

[2] = tested on: transplanted tumor of human breast cancer MDA-MB-231 cells; assay: Human breast cancer (MDA-MB-231) in nude mice model; details: MDA-MB-231 nude mice; 30 mg/kg i.g. 30 d
Protocol: as §1, with “matrigel, and” for “matrigel,”
as §2, §3

[3] = tested on: transplanted tumor of mouse Lewis lung cancer; assay: Inhibition of transplanted tumor of mouse Lewis lung cancer
Protocol: Lewis lung cancer cells were cultured in a RPMI 1640 culture medium containing 10% fetal bovine serum at 37° C. in a 5% CO2 incubator. The cells in the logarithmic growth phase were subjected to trypsinization with 0.25% trypsin, then the cells were collected to be centrifugated to remove the obtained supernatant, then were washed twice with sterile normal saline. […] The Lewis cells were adjusted to 1×10^7/mL in concentration and stored in ice water. 75% ethanol was used to disinfect the skin under the right armpits of the mice, and each C57BL/6 mouse was soon inoculated subcutaneously with 0.2 ml of the cells at its right armpit.
In the Lewis lung cancer model, the mice inoculated with the tumor were randomly divided into groups with 10 mice in each group on the next day of inoculation. […] Each group was continuously administered intragastrically for 15 days with a dose of 20 ml/kg.
The tumor-bearing mice were weighed and sacrificed the next day after the last administration. The subcutaneous tumors were dissected and weighed. The average tumor weight of each group is calculated, and the tumor inhibition rate is calculated. Tumor inhibition rate=(1−T/C)×100%
T: average tumor weight of the drug-administered group; C: average tumor weight of the blank control group.

[4] = tested on: transplanted tumor of human hepatocarcinoma HepG-2 cells; assay: Human hepatocarcinoma in nude mice model; details: HepG-2 nude mice; 30 mg/kg i.g. 30 d
Protocol: as §1, with “matrigel, and” for “matrigel,”
as §2, §3

[5] = tested on: transplanted tumor of human large cell lung cancer H1299 cells; assay: Human large cell lung cancer (H1299) in nude mice model; details: 30 mg/kg i.g. 30 d
Protocol: as §1, §2, §3

[6] = tested on: transplanted tumor of human lymphoma U937 cells; assay: Human lymphoma in nude mice model; details: 30 mg/kg i.g. 30 d
Protocol: as §1, with “U937 cells in a logarithmic growth phase were taken and subjected to a trypan blue exclusion experiment showing that the cell viability was more than 95%, then the cells were subjected to trypsinization, centrifugation, and supernatant removal. Then” for “Then”, “matrigel, and” for “matrigel,”
as §2, §3

[7] = tested on: transplanted tumor of human large cell lung cancer H460 cells; assay: Human large cell lung cancer (H460) in nude mice model; details: 30 mg/kg i.g. 30 d
Protocol: as §1, with “matrigel, and” for “matrigel,”
as §2, §3

## O=P1(N(CCCl)CCCl)NCCCO1 (centres unmarked) [Cyclophosphamide]
[1]
  Body Weight (g)(d1): 22.89 ± 1.22 g
  Body Weight (g)(d30): 19.27 ± 1.49 g
  Inhibition Rate (%): 68.68%
  Relative Tumor Proliferation Rate(T/C): 75.42%
  Relative Tumor Volume (RTV): 11.78 ± 3.25
  Tumor Volume (mm3) (d1): 122.41 ± 14.06 mm3
  Tumor Volume (mm3) (d30): 1430.80 ± 134.31 mm3
  Tumor Weight: 0.85 ± 0.18 g
[2]
  Body Weight (g)(d1): 21.28 ± 0.95 g
  Body Weight (g)(d30): 19.79 ± 1.03 g
  Inhibition Rate (%): 79.75%
  Relative Tumor Proliferation Rate(T/C): 28.59%
  Relative Tumor Volume (RTV): 3.46 ± 0.70
  Tumor Volume (mm3) (d1): 169.73 ± 11.79 mm3
  Tumor Volume (mm3) (d30): 587.27 ± 30.47 mm3
  Tumor Weight: 0.27 ± 0.11 g
[3]; 26 mg/kg, positive drug group, 15 days
  Tumor Weight: 0.59 ± 0.13 g
[3]; 26 mg/kg, positive drug group, by tumor weight
  Inhibition Rate (%): 49.14%
[3]; 26 mg/kg, positive drug group, d1
  Body Weight (g)(d1): 25.60 ± 2.06 g
[3]; 26 mg/kg, positive drug group, d15
  Body Weight (g) (d15): 20.14 ± 3.26 g
[3]; mouse Lewis lung cancer, cyclophosphamide 30 mg/kg i.g. 15 days
  tumor inhibition rate: 49.14%
[4]
  Body Weight (g)(d1): 22.67 ± 1.54 g
  Body Weight (g)(d30): 21.52 ± 1.99 g
  Inhibition Rate (%): 63.48%
  Relative Tumor Proliferation Rate(T/C): 32.55%
  Relative Tumor Volume (RTV): 4.27 ± 0.26
  Tumor Volume (mm3) (d1): 146.12 ± 2.30 mm3
  Tumor Volume (mm3) (d30): 623.67 ± 28.44 mm3
  Tumor Weight: 0.46 ± 0.07 g
[5]
  Body Weight (g)(d1): 20.92 ± 0.59 g
  Body Weight (g)(d30): 18.82 ± 0.52 g
  Inhibition Rate (%): 68.59%
  Relative Tumor Proliferation Rate(T/C): 31.47%
  Relative Tumor Volume (RTV): 6.13 ± 0.82
  Tumor Volume (mm3) (d1): 115.38 ± 13.82 mm3
  Tumor Volume (mm3) (d30): 707.28 ± 26.96 mm3
  Tumor Weight: 0.56 ± 0.11 g
[6]
  Body Weight (g)(d1): 19.79 ± 0.86 g
  Body Weight (g)(d30): 18.85 ± 0.62 g
  Inhibition Rate (%): 78.40%
  Relative Tumor Proliferation Rate(T/C): 34.30%
  Relative Tumor Volume (RTV): 6.37 ± 0.94
  Tumor Volume (mm^3) (d1): 139.58 ± 11.25 mm^3
  Tumor Volume (mm^3) (d30): 889.72 ± 59.73*** mm^3
  Tumor Weight: 0.38 ± 0.16 g
[7]
  Body Weight (g)(d1): 20.32 ± 0.87 g
  Body Weight (g)(d30): 19.25 ± 0.83 g
  Inhibition Rate (%): 68.49%
  Relative Tumor Proliferation Rate(T/C): 36.37%
  Relative Tumor Volume (RTV): 7.66 ± 1.26
  Tumor Volume (mm3) (d1): 130.82 ± 2.38 mm3
  Tumor Volume (mm3) (d30): 1002.08 ± 48.82 mm3
  Tumor Weight: 0.61 ± 0.13 g
